Here are results for one molecule from ChEMBL document CHEMBL3784959, “Cyclophosphamide pharmacokinetics and dose requirements in patients with renal insufficiency” (Kidney Int, 2002).

The structures appear in SMILES notation.

Series [1] in a line: Drug excretion in urine of patient ( 12 patients) with normal renal function at 0.83 +/- 0.05 g/m'2 administered as pulse therapy with 1 hr infusion by HPLC analysis. Particulars: human, iv, 0.83 g/m'2.
Series [2] can be described thus: Drug excretion in urine of patient (6 patients) with moderate renal insufficiency at 1.4 +/- 0.1 g/m'2 administered as pulse therapy with 1 hr infusion by HPLC analysis. Particulars: human, iv, 1.4 g/m'2.
Series [3] can be described thus: Drug excretion in urine of patient (6 patients) with severe renal insufficiency at 1.1 +/- 0.2 g/m'2 administered as pulse therapy with 1 hr infusion by HPLC analysis. To be noted: human, iv, 1.1 g/m'2.
A short description of series [4]: Drug excretion in urine of patient (6 patients) with hemodialysis-dependent end-stage renal disease at 1.2 +/- 0.4 g/m'2 administered as pulse therapy with 1 hr infusion followed by hemodialysis for 3 hrs started 7 hrs post dose measured during hemodialysis treatment by HPLC analysis. Particulars: human, iv, 1.2 g/m'2.
The nature of series [5]: Volume of distribution at steady state in patient (6 patients) with moderate renal insufficiency at 1.4 +/- 0.1 g/m'2 administered as pulse therapy with 1 hr infusion by HPLC analysis. Particulars: human, in vivo, iv, 1.4 g/m'2.
Series [6] can be described thus: Volume of distribution at steady state in patient (6 patients) with severe renal insufficiency at 1.1 +/- 0.2 g/m'2 administered as pulse therapy with 1 hr infusion by HPLC analysis. Particulars: human, in vivo, iv, 1.1 g/m'2.
Series [7] is described as follows: Volume of distribution at steady state in patient (6 patients) with hemodialysis-dependent end-stage renal disease at 1.2 +/- 0.4 g/m'2 administered as pulse therapy with 1 hr infusion followed by hemodialysis for 3 hrs started 7 hrs post dose measured during hemodialysis treatment by HPLC analysis. To be noted: human, in vivo, iv, 1.2 g/m'2.
A short description of series [8]: Drug excretion in dialysate of patient (4 patients) with chronic renal failure at 100 mg, iv administered over 10 mins followed by hemodialysis for 4 hrs measured during hemodialysis treatment by GLC analysis. To be noted: human.
The nature of series [9]: Drug recovery in normal human urine.
Series [10] is described as follows: clinical. Particulars: human, in vivo, iv, 1.2 g/m'2.
Description: Systemic clearance in patient (6 patients) with hemodialysis-dependent end-stage renal disease at 1.2 +/- 0.4 g/m'2 administered as pulse therapy with 1 hr infusion followed by hemodialysis for 3 hrs started 7 hrs post dose measured during hemodialysis treatment by HPLC analysis
The nature of series [11]: clinical. To be noted: human, in vivo, iv, 0.83 g/m'2.
Description: Volume of distribution at steady state in patient ( 12 patients) with normal renal function at 0.83 +/- 0.05 g/m'2 administered as pulse therapy with 1 hr infusion by HPLC analysis
A short description of series [12]: clinical. Particulars: human, in vivo, iv, 0.83 g/m'2. The source holds these as a separate data set.
Description: Renal clearance in patient ( 12 patients) with normal renal function at 0.83 +/- 0.05 g/m'2 administered as pulse therapy with 1 hr infusion by HPLC analysis
Series [13] can be described thus: clinical. Particulars: human, in vivo, iv, 1.4 g/m'2.
Description: Renal clearance in patient (6 patients) with moderate renal insufficiency at 1.4 +/- 0.1 g/m'2 administered as pulse therapy with 1 hr infusion by HPLC analysis
The nature of series [14]: clinical. Particulars: human, in vivo, iv, 1.1 g/m'2.
Description: Renal clearance in patient (6 patients) with severe renal insufficiency at 1.1 +/- 0.2 g/m'2 administered as pulse therapy with 1 hr infusion by HPLC analysis
A short description of series [15]: clinical. Particulars: human, in vivo, iv, 1.2 g/m'2. The source holds these as a separate data set.
Description: Renal clearance in patient (6 patients) with hemodialysis-dependent end-stage renal disease at 1.2 +/- 0.4 g/m'2 administered as pulse therapy with 1 hr infusion followed by hemodialysis for 3 hrs started 7 hrs post dose measured during hemodialysis treatment by HPLC analysis
The nature of series [16]: clinical. Particulars: human, in vivo, iv, 0.83 g/m'2. This is another data set of the same source.
Description: Elimination half life in patient ( 12 patients) with normal renal function at 0.83 +/- 0.05 g/m'2 administered as pulse therapy with 1 hr infusion by HPLC analysis
The nature of series [17]: clinical. Particulars: human, in vivo, iv, 1.4 g/m'2. This is another data set of the same source.
Description: Elimination half life in patient (6 patients) with moderate renal insufficiency at 1.4 +/- 0.1 g/m'2 administered as pulse therapy with 1 hr infusion by HPLC analysis
The nature of series [18]: clinical. To be noted: human, in vivo, iv, 1.1 g/m'2. This is another data set of the same source.
Description: Elimination half life in patient (6 patients) with severe renal insufficiency at 1.1 +/- 0.2 g/m'2 administered as pulse therapy with 1 hr infusion by HPLC analysis
A short description of series [19]: clinical. Particulars: human, in vivo, iv, 1.2 g/m'2. The source holds these as a separate data set.
Description: Elimination half life in patient (6 patients) with hemodialysis-dependent end-stage renal disease at 1.2 +/- 0.4 g/m'2 administered as pulse therapy with 1 hr infusion followed by hemodialysis for 3 hrs started 7 hrs post dose measured during hemodialysis treatment by HPLC analysis
A short description of series [20]: clinical. To be noted: human, in vivo, iv, 0.83 g/m'2. This is another data set of the same source.
Description: Systemic clearance in patient ( 12 patients) with normal renal function at 0.83 +/- 0.05 g/m'2 administered as pulse therapy with 1 hr infusion by HPLC analysis
A short description of series [21]: clinical. To be noted: human, in vivo, iv, 1.4 g/m'2. This is another data set of the same source.
Description: Systemic clearance in patient (6 patients) with moderate renal insufficiency at 1.4 +/- 0.1 g/m'2 administered as pulse therapy with 1 hr infusion by HPLC analysis
The nature of series [22]: clinical. To be noted: human, in vivo, iv, 1.1 g/m'2. This is another data set of the same source.
Description: Systemic clearance in patient (6 patients) with severe renal insufficiency at 1.1 +/- 0.2 g/m'2 administered as pulse therapy with 1 hr infusion by HPLC analysis

The term clearance denotes a measure of how efficiently the substance is removed, as volume per time. A low value points to a low capacity for elimination. One may read the half-life as the time in which the quantity being followed falls by half. A high value points to slow loss. Consider `O=P1(N(CCCl)CCCl)NCCCO1` (configuration not stated) [CYCLOPHOSPHAMIDE ANHYDROUS], for which the dose excreted at 1 h in series [1] was 19.1%; in series [2] it was 5.8%; in series [3] it was 5.6%. For the same molecule, the dose excreted in series [4] is 3%; in [9], not above 25%. Further, the Vd at 1 h in series [5] amounted to 0.36 L/kg; in series [6], 0.36 L/kg; in “clinical [11]”, 0.49 L/kg. Moreover, the Vd in [7] turned out to be 0.49 L/kg. In series [8], this molecule yielded a dose excreted at 4 h of 37%. The clearance in the series “clinical [10]” worked out at 64 mL/min. The values for the CL renal at 1 h in the series “clinical [12]”, in the series “clinical [13]” and in the series “clinical [14]” were 14.9 mL/min, 3.4 mL/min and 2.4 mL/min, respectively. Besides, the CL renal at 7 h in the series “clinical [15]” came to 2.1 mL/min. The half-life at 1 h in the series “clinical [16]” is 4.8 h; in the series “clinical [17]”, 6.4 h; in the series “clinical [18]”, 7.3 h. Moreover, in the series “clinical [19]”, the half-life is 7.3 h. The clearance at 1 h in the series “clinical [20]” is 79 mL/min; in the series “clinical [21]”, 57 mL/min; in the series “clinical [22]” it was 47 mL/min.
